From patent publication US4324728A, “Compound nanaomycin A and derivatives thereof and a process for producing the same” (The Kitasato Institute, priority 1976, dated 1982)
Values after ≈ are worked out from the molar mass of the structure shown.

How the values were obtained:
[1] = system: Escherichia coli NIHJ; assay: Minimal inhibitory concentration (agar); format: cell-based; settings: 48 h, nutrient agar, pH 7.0, 2 days, 37° C.
[2] = system: fungi; assay: Antifungal activity (in words); format: cell-based
[3] = system: mycoplasmas; assay: Antimycoplasma activity (in words); format: cell-based
[4] = system: Klebsiella pneumoniae PCI 602; assay: Minimal inhibitory concentration (agar); format: cell-based; settings: PCI602, 48 h, nutrient agar, pH 7.0, 2 days, 37° C.
[5] = system: Mycoplasma pneumoniae; assay: Minimal inhibitory concentration (PPLO agar); format: cell-based; settings: 192 h, Eiken PPLO agar, pH 7.8, 8 days, 37° C.
[6] = system: Sclerotinia cinerea; assay: Minimal inhibitory concentration (agar); format: cell-based; settings: 96 h, potato agar, pH 6.4, 4 days, 27° C.
Description: | P potato agar (pH 6.4, 4 days, 27° C.)

[7] = system: Staphylococcus aureus FDA 209P (JC-1); assay: Minimal inhibitory concentration (agar); format: cell-based; settings: FDA209P, 48 h, nutrient agar, pH 7.0, 2 days, 37° C.
Description: (§1) Medium N nutrient agar (pH 7.0, 2 days, 37° C.)
(§2) MIC Minimal inhibitory concentration
(§3) N nutrient agar (pH 7.0, 2 days, 37° C.)

[8] = system: Sarcina lutea PCI 1001; assay: Minimal inhibitory concentration (agar); format: cell-based; settings: Micrococcus luteus, PCI1001, 48 h, pH 7, nutrient agar, pH 7.0, 2 days, 37° C.; read-out: MIC
Description: as §1, §2, §3

[9] = system: Shigella flexneri; assay: Minimal inhibitory concentration (agar); format: cell-based; settings: 48 h, nutrient agar, pH 7.0, 2 days, 37° C.
Description: as §1, §2, §3

[10] = system: Bacillus subtilis PCI 219; assay: Minimal inhibitory concentration (agar); format: cell-based; settings: Bacillus subtilis, PCI219, 48 h, pH 7, nutrient agar, pH 7.0, 2 days, 37° C.; read-out: MIC
Description: as §1, §2, §3

[11] = system: Escherichia coli NIHJ (JC-2); assay: Minimal inhibitory concentration (agar); format: cell-based; settings: 48 h, pH 7, nutrient agar, pH 7.0, 2 days, 37° C.
Description: as §1, §2, §3

[12] = system: Pseudomonas aeruginosa; assay: Minimal inhibitory concentration (agar); format: cell-based; settings: 48 h, nutrient agar, pH 7.0, 2 days, 37° C.
Description: as §1, §2, §3

[13] = system: Mycoplasma iners; assay: Minimal inhibitory concentration (PPLO agar); format: cell-based; settings: Mycoplasmopsis iners, 192 h; Eiken PPLO agar, pH 7.8, 8 days, 37° C.
Description: (§4) H Hokken PPLO agar (pH 7.8, 8 days, 37° C.)
as §2
(§5) E Eiken PPLO agar (pH 7.8, 8 days, 37° C.)

[14] = system: Mycoplasma gallinarum; assay: Minimal inhibitory concentration (PPLO agar); format: cell-based; settings: Mycoplasmopsis gallinarum, 192 h, Eiken PPLO agar, pH 7.8, 8 days, 37° C.
Description: as §4, §2, §5

[15] = Solubility; format: physicochemical
[16] = system: Salmonella typhimurium; assay: Minimal inhibitory concentration (agar); format: cell-based; settings: Salmonella enterica, 48 h, nutrient agar, pH 7.0, 2 days, 37° C.
[17] = system: Aspergillus niger; assay: Minimal inhibitory concentration (agar); format: cell-based; settings: Aspergillus niger, 96 h; potato agar, pH 6.4, 4 days, 27° C.; read-out: MIC
Description: (§6) Minimal inhibitory concentration was assayed by agar dilution method
(§7) (potato agar, pH 6.4, 27° C., 4 days).
(§8) P potato agar (pH 6.4, 4 days, 27° C.)

[18] = system: Mycoplasma gallisepticum 333P (Spiramycin resistant); assay: Minimal inhibitory concentration (PPLO agar); format: cell-based; settings: Mycoplasmoides gallisepticum, 192 h, pH 7.8
Description: as §4, §5, §2

[19] = system: Mycoplasma gallisepticum S-6; assay: Minimal inhibitory concentration (PPLO agar); format: cell-based; settings: Mycoplasmoides gallisepticum, S6, 192 h; Eiken PPLO agar, pH 7.8, 8 days, 37° C.; read-out: MIC
Description: as §4, §5, §2

[20] = system: Mycoplasma gallisepticum KP-13; assay: Minimal inhibitory concentration (PPLO agar); format: cell-based; settings: Mycoplasmoides gallisepticum, KP13, 192 h; Eiken PPLO agar, pH 7.8, 8 days, 37° C.; read-out: MIC
Description: as §4, §5, §2

[21] = system: Mycobacterium smegmatis ATCC 607; assay: Minimal inhibitory concentration (agar); format: cell-based; settings: Mycolicibacterium smegmatis, ATCC607, 48 h; nutrient agar, pH 7.0, 2 days, 37° C.
[22] = system: Candida albicans; assay: Minimal inhibitory concentration (agar); format: cell-based; settings: Candida albicans, 96 h, pH 6.4, potato agar, pH 6.4, 4 days, 27° C.; read-out: MIC
Description: as §8, §2, §6, §7

[23] = system: parasite of the genus Tricophyton; assay: Therapeutic effect on infectious diseases in guinea pigs and cattle; format: in vivo
Description: When dermatomycosis of cattle caused by mass infection of Trichophyton verrucosum is treated with nanaomycin A, nanaomycin A is dissolved or suspended in a suitable carrier, for example, olive oil, and is coated on the affected part directly with or without removal of the scales. […] The results obtained by once-coating of nanaomycin A and by twice-coating (the second coating is carried out a week after the first coating) are shown in Tables 2 and 3, respectively.

[24] = system: Staphylococcus aureus FDA 209P; assay: Minimal inhibitory concentration (agar); format: cell-based; settings: FDA209P, 48 h, nutrient agar, pH 7.0, 2 days, 37° C.
[25] = system: Gram-positive bacteria; assay: Antibacterial activity (in words); format: cell-based
[26] = system: Trichophyton interdigitale; assay: Minimal inhibitory concentration (agar); format: cell-based; settings: Trichophyton interdigitale, 96 h; potato agar, pH 6.4, 4 days, 27° C.; read-out: MIC
[27] = system: Saccharomyces sake; assay: Minimal inhibitory concentration (agar); format: cell-based; settings: Saccharomyces, 96 h; potato agar, pH 6.4, 4 days, 27° C.; read-out: MIC
[28] = system: mycoplasma, Gram-positive bacteria and tricophyton; assay: Antimicrobial activity (in words); format: cell-based

With CC1OC(CC(N)=O)CC2=C1C(=O)c1c(O)cccc1C2=O (stereo not drawn) [Nanaomycin C, nanaomycin C] as the compound, how does the MIC [1] read?
Its MIC is 100 µg/mL (≈ 332 µM).

And the activity against fungi [2]?
The activity against fungi was “a weaker activity against fungi and mycoplasmas than nanaomycin A”.

What about the “activity against mycoplasma(s)” value [3] of the same compound?
Its value is “a weaker activity against fungi and mycoplasmas than nanaomycin A”.

What about the MIC [4] of the same compound?
Its MIC is over 100 µg/mL.

What about the MIC [5] of the same compound?
The MIC was 6.3 µg/mL (≈ 20.9 µM).

What about the MIC [6] of the same compound?
The MIC was 100 µg/mL (≈ 332 µM).

And the MIC [7]?
The MIC was 3.1 µg/mL (≈ 10.3 µM).

What about the MIC [8] of the same compound?
The MIC was 25 µg/mL (≈ 83 µM).

And the MIC [9]?
Its MIC is over 100 µg/mL.

And the MIC [10]?
Its MIC is 6.3 µg/mL (≈ 20.9 µM).

And the MIC [11]?
The MIC was over 100 µg/mL.

What about the MIC [12] of the same compound?
The MIC was over 100 µg/mL.

What about the MIC [13] of the same compound?
Its MIC is 50 µg/mL (≈ 166 µM).

What about the MIC [14] of the same compound?
Its MIC is 12.5 µg/mL (≈ 41.5 µM).

And the “Solubility in methanol, ethanol, ethylacetate, chloroform and acetone” value ([15]; methanol, ethanol, ethylacetate, chloroform, acetone)?
The value was “Soluble”.

And the “Solubility in n-hexane and petroleum ether” value ([15]; n-hexane, petroleum ether)?
The value was “Insoluble”.

And the Solubility in water ([15]; water)?
The Solubility in water was “Insoluble”.

What about the MIC [16] of the same compound?
Its MIC is over 100 µg/mL.

And the MIC [17]?
The MIC was over 100 µg/mL.

And the MIC [18]?
The MIC was 3.1 µg/mL (≈ 10.3 µM).

What about the MIC [19] of the same compound?
The MIC was 6.3 µg/mL (≈ 20.9 µM).

And the MIC [20]?
Its MIC is 12.5 µg/mL (≈ 41.5 µM).

And the MIC [21]?
Its MIC is 50 µg/mL (≈ 166 µM).

What about the MIC [22] of the same compound?
The MIC was over 100 µg/mL.

And the “therapeutic effect on Trichophyton infectious diseases” value [23]?
The value was “poor therapeutic effect”.

What about the MIC [24] of the same compound?
The MIC was 6.3 µg/mL (≈ 20.9 µM).

What about the “activity against Gram-positive bacteria” value [25] of the same compound?
The value was “as strong activity against Gram-positive bacteria as nanaomycin A”.

And the MIC [26]?
The MIC was 100 µg/mL (≈ 332 µM).

What about the MIC [27] of the same compound?
Its MIC is over 100 µg/mL.

What about the antimicrobial activity [28] of the same compound?
Its antimicrobial activity is “inhibits mainly Gram-positive bacteria and mycoplasmas”.
